For assay [1], the system named is platelet aggregation induced by PAF. Nature of the assay: Inhibition of platelet aggregation induced by PAF. In kind it is cell-based, New Zealand albino rabbits. The note with it: Oryctolagus cuniculus; rabbit platelet rich plasma, PAF (C₁₈) 15 nM, Born nephelometric technique; read-out: IC₅₀. The protocol:
Blood is obtained by cardiac puncture of male New Zealand albino rabbits (b.w. 2-2.5 Kg) and coagulation is prevented by adding 1 part of 3.16% sodium citrate dihydrate in 9 parts of blood. Platelet rich plasma (PRP) is prepared by centrifuging the blood at 250xg for 10 min. at 4°C and then it is diluted with platelet poor plasma (PPP) obtained by further centrifuging at 3000xg for 10 min. The platelet count is adjusted to 3x10⁵/mm³. Platelet aggregation induced by PAF (C₁₈, prepared in our laboratory) (15 nM) is determined by the Born nephelometric technique (J. Physiol., 1962, 162, 67) using an aggregometer Chrono-log 500. The activities of the inhibitors are expressed as the IC₅₀ value, that is to say the concentration of drug needed to inhibit platelet aggregation by 50%.

Assay [2] deals with LTB₄ production by human granulocytes (HL-60 cells). Nature of the assay: Inhibition of LTB4 production by human granulocytes. Format: cell-based. To be noted: differentiated HL-60 cells stimulated by calcium ionophore A23187 (5 x 10⁻⁶M), LTB₄ by EIA, read-out: % inh. of LTB₄ production (at 5 µM). The protocol: Human promyelocytes (HL-60 cells) are grown in a RPMI 1640 medium suplemented with 20% heat-inactivated fetal bovine serum, 50 U/mL penicillin and 50 µg/mL streptomycin under an atmosphere of 5% CO₂ at 37°C. Cells are exposed to 1.3% DMSO for 5 days in order to differentiate them into mature granulocytes and then are washed and resuspended in Dubelcco's phosphate-buffered saline at 10⁶ cells/mL. HL-60 (10⁶ cells/mL) are incubated for 15 min at 37°C in the presence or absence (vehicle only) of test compound. Cells are then stimulated by calcium ionophore A23187 (5 x 10⁻⁶M) for 15 min. LTB₄ secreted into the external medium is measured by EIA (enzymo immunoassay) using a commercially available LTB₄-EIA kit. Results are expressed as the percent inhibition of LTB₄ production as compared to controls.

Regarding `Cc1nnc2n1-c1sc3c(c1C(c1ccccc1Cl)=NC2C)CCN(C(=O)c1cccc(OCc2ccc4ccccc4n2)c1)C3` (stereo not drawn) [Compound 1, 6-(2-Chlorophenyl)-1,4-dimethyl-9-[3-(2-quinolylmethoxy)benzoyl]-7,8,9,10-tetrahydro-4H-pyrido[4',3': 4,5]thieno[3,2-f] [1,2,4]triazolo[4,3-a] [1,4]diazepine], the IC50 in assay [1] came out at 32 nM. The inhibition at 5 µM in assay [2] was 72%.
On to `Cc1nnc2n1-c1sc3c(c1C(c1ccccc1Cl)=NC2C)CCN(C(=O)Cc1ccc(OCc2ccc4ccccc4n2)cc1)C3` (stereo not drawn) [Compound 2, 6-(2-Chlorophenyl)-1,4-dimethyl-9-[4-(2-quinolylmethoxy)phenylacetyl]-7,8,9,10-tetrahydro-4H-pyrido[4',3': 4,5]thieno[3,2-f] [1,2,4]triazolo[4,3-a] [1,4]diazepine], for which the IC50 in assay [1] turned out to be 16 nM.

The values are drawn from EP0624588A1, “New quinoline derivatives with pharmacological activity” (J. URIACH & CIA. S.A., priority 1993, dated 1994).
